The record followed here is patent US9107959B2, “Method for site-specific polyvalent display on polymers” (priority 2006, dated 2015).

A short description of the data set: Cyclic voltammetry (electrochemical analyses). It counts as physicochemical. To be noted: 0.5 mM in water, NaCl 50 mM. As for the experimental part: Ethynylferrocene (1.05 mg, 5.0 μmol) was dissolved in 10 mL HPLC grade water. NaCl (29.22 mg, 0.5 mmol) was added to the solution as a supporting electrolyte. Similarly, solutions of 10 mL water, 6.3 mg (5.0 μmol) peptoid 13 or 4.8 mg (5.0 μmol) peptoid 14 and 29.22 mg (0.5 mmol) NaCl were prepared. The following techniques were performed identically on 0.5 mM ethynylferrocene (50 mM NaCl), 0.5 mM 13 (50 mM NaCl) or 0.5 mM 14 (50 mM NaCl). Approximately 4 mL of solution was transferred to an electrochemical cell and subjected to cyclic voltammetry (CV) experiments. Cyclic voltammetry was conducted using a CH Instruments 600A Electrochemical Analyzer and CV curves were generated using software developed by CH Instruments. Current (μA) versus Potential (V) was measured across a freshly polished CHI104 3 mm diameter glassy carbon disk working electrode (CH Instruments) with a Ag/AgCl (3 M KCl) reference electrode (CH Instruments) and a Pt wire […] (scan rate=9.0 mV s^−1).
To test the effect of triazole conjugation on ferrocene redox properties, compound 13 was purified to >96% as determined by RP-HPLC and the electrochemical behavior of ethynylferrocene and 13 were compared using cyclic voltammetry (CV). Additionally, the influence of the estradiol group on the redox potential of the neighboring ferrocene moiety was evaluated by comparing the electrochemical characteristics of 13 with its azido-functionalized precursor 14. CV experiments were carried out at room temperature using previously described methods (Casas-Solvas et al., Org. Lett. 2004, 6, 3687). CV was performed on solutions of ethynylferrocene (0.5 mM), 13 (0.5 mM) or 14 (0.5 mM) prepared in water with NaCl (50 mM) as a supporting electrolyte, using a Ag/AgCl (KCl 3 M) reference electrode, a freshly polished glassy carbon working electrode, and a Pt wire counter electrode with a scan rate of 9.0 mV s^−1. The values of the formal redox potential)(E^o) and the half-peak potential (Ep/2) of ethynylferrocene, 13 and 14 are shown in Table 1. […]

The mark [1] stands for this setting: glassy carbon working electrode, Ag/AgCl reference, scan rate 9.0 mV s^-1.

As for Ethynylferrocene, the “Redox behaviour in cyclic voltammograms (ferrocene/ferrocenium)” value (FIG. 5) is recorded as “reversible redox couples”. Further, under setting [1], the “Ep/2 (half-peak potential)” value was determined as 0.525 V and the “E° (formal redox potential)” value came to 0.512 V.
